{"source": "patent US6706663B2", "about": "“Herbicidal 3-heterocyclic substituted benzisothiazole and benzisoxazole compounds” (Wyeth, priority 2000, dated 2004)", "key": {"[1]": {"test_system": "IPOHE (Ipomoea hederacea)", "test": "Preemergence herbicidal evaluation", "assay_type": "in vivo, (L.) Jacq.", "conditions": "preemergence, rated 4-5 weeks after treatment"}, "[2]": {"test_system": "MOOVA (Monochoria vaginalis)", "test": "Flooded paddy, preemergence weed control", "assay_type": "in vivo, Presl.", "conditions": "rated 3-4 weeks after treatment, 0-9 rating scale", "outline": "(§1)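 Greenhouse paddy test, preemergence. Seeds planted in the top 0.5 cm of silt loam soil, which remained flooded at 1.5–3 cm depth. Scored 0-9 by visual comparison with control.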"}, "[3]": {"test_system": "CYPIR (Cyperus iria)", "test": "Flooded paddy, preemergence weed control", "assay_type": "in vivo", "conditions": "rated 3-4 weeks after treatment, 0-9 rating scale", "outline": "as §1"}, "[4]": {"test_system": "ZEAMX (Corn, Field)", "test": "Postemergence herbicidal evaluation", "assay_type": "in vivo, Zea mays, L.", "conditions": "postemergence", "outline": "(§2)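 Visual 0–9 injury scores versus control plants, covering stand, vigour, malformation, size, chlorosis and general appearance, taken four to five weeks post-spray and averaged over replicate tests. Plants were sprayed at roughly two weeks old and held on greenhouse benches.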"}, "[5]": {"test_system": "GALAP (Galium aparine)", "test": "Postemergence herbicidal evaluation", "assay_type": "in vivo", "conditions": "postemergence", "outline": "as §2"}, "[6]": {"test_system": "ECHORC (Echinochloa oryzoides)", "test": "Flooded paddy, preemergence weed control", "assay_type": "in vivo, Echinochloa oryzoides (Ard.) Fritsch.", "conditions": "rated 3-4 weeks after treatment, 0-9 rating scale", "outline": "as §1"}, "[7]": {"test_system": "AMBEL (Ambrosia artemisifolia)", "test": "Preemergence herbicidal evaluation", "assay_type": "in vivo, L.", "conditions": "preemergence, rated 4-5 weeks after treatment", "outline": "(§3)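 Rating 0–9, visual, vs control; 4–5 wk after spraying seeded cups with compound in aq. acetone; conventional greenhouse care.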"}, "[8]": {"test_system": "GALAP (Galium aparine)", "test": "Preemergence herbicidal evaluation", "assay_type": "in vivo", "conditions": "preemergence, rated 4-5 weeks after treatment", "outline": "as §3"}, "[9]": {"test_system": "ECHCG (Echinochloa crus-galli)", "test": "Postemergence herbicidal evaluation", "assay_type": "in vivo, (L.) Beau", "conditions": "postemergence", "outline": "as §2"}, "[10]": {"test_system": "ZEAMX (Corn, Field)", "test": "Preemergence herbicidal evaluation", "assay_type": "in vivo, Zea mays, L.", "conditions": "preemergence, rated 4-5 weeks after treatment"}, "[11]": {"test_system": "GLXMAW (Soybean, Williams)", "test": "Postemergence herbicidal evaluation", "assay_type": "in vivo, Glycine max, (L.) Merr. cv Williams", "conditions": "postemergence", "outline": "as §2"}, "[12]": {"test_system": "ABUTH (Abutilon theophrasti)", "test": "Postemergence herbicidal evaluation", "assay_type": "in vivo, Medic.", "conditions": "postemergence", "outline": "as §2"}, "[13]": {"test_system": "ORYSAT (Rice, Tebonnet)", "test": "Postemergence herbicidal evaluation", "assay_type": "in vivo, Oryza sativa, (L.) Tebonnet", "conditions": "postemergence", "outline": "as §2"}, "[14]": {"test_system": "ABUTH (Abutilon theophrasti)", "test": "Preemergence herbicidal evaluation", "assay_type": "in vivo, Medic.", "conditions": "preemergence, rated 4-5 weeks after treatment"}, "[15]": {"test_system": "SAGPY (Sagittaria pygmaea)", "test": "Flooded paddy, preemergence weed control", "assay_type": "in vivo, L.", "conditions": "rated 3-4 weeks after treatment, 0-9 rating scale", "outline": "as §1"}, "[16]": {"test_system": "GLXMA (Soybean)", "test": "Preemergence herbicidal evaluation", "assay_type": "in vivo, Glycine max, (L.) Merr.", "conditions": "preemergence, rated 4-5 weeks after treatment"}, "[17]": {"test_system": "ORYSAT (Rice, Tebonnet)", "test": "Flooded paddy, post-transplant rice tolerance", "assay_type": "in vivo, Oryza sativa, (L.) Tebonnet", "conditions": "in vivo", "outline": "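Scores (0-9) reflect visual injury relative to untreated plants in flooded silt loam. Each pot held two transplanted ten-day-old seedlings under 1.5 to 3 cm standing water in the greenhouse.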"}, "[18]": {"test_system": "CHEAL (Chenopodium album)", "test": "Postemergence herbicidal evaluation", "assay_type": "in vivo, L.", "conditions": "postemergence", "outline": "as §2"}, "[19]": {"test_system": "AMBEL (Ambrosia artemisifolia)", "test": "Postemergence herbicidal evaluation", "assay_type": "in vivo, L.", "conditions": "postemergence", "outline": "as §2"}, "[20]": {"test_system": "CASOB (Cassia obtusifolia)", "test": "Postemergence herbicidal evaluation", "assay_type": "in vivo, L.", "conditions": "postemergence", "outline": "as §2"}, "[21]": {"test_system": "ECHCG (Echinochloa crus-galli)", "test": "Preemergence herbicidal evaluation", "assay_type": "in vivo, (L.) Beau", "conditions": "preemergence, rated 4-5 weeks after treatment", "outline": "as §3"}, "[22]": {"test_system": "IPOHE (Ipomoea hederacea)", "test": "Postemergence herbicidal evaluation", "assay_type": "in vivo, (L.) Jacq.", "conditions": "postemergence", "outline": "as §2"}, "[23]": {"test_system": "TRZAWR (Wheat, Winter, cv Riband)", "test": "Postemergence herbicidal evaluation", "assay_type": "in vivo, Triticum aestivum", "conditions": "postemergence", "outline": "as §2"}}, "data": [{"substance": "5-[5-[3,6-dihydro-3-methyl-2,6-dioxo-4-(trifluoromethyl)-1(2H)-pyrimidinyl]-1,2-benzisothiazol-3-yl]-1,6-hydro-6-oxo-2,3-pyrazinedicarbonitrile [Compound 91]", "values": [{"measurement": "Preemergence herbicidal rating IPOHE", "setting": "[1]; rate 0.0620 kg/ha", "value": 0.0}, {"measurement": "Preemergence herbicidal rating IPOHE", "setting": "[1]; rate 0.1250 kg/ha", "value": 0.0}, {"measurement": "Preemergence herbicidal rating IPOHE", "setting": "[1]; rate 0.2500 kg/ha", "value": 0.0}, {"measurement": "MOOVA herbicidal rating", "setting": "[2]; rate 0.0320 kg/ha", "value": 0.0}, {"measurement": "MOOVA herbicidal rating", "setting": "[2]; rate 0.1250 kg/ha", "value": 0.0}, {"measurement": "CYPIR herbicidal rating", "setting": "[3]; rate 0.0320 kg/ha", "value": 0.0}, {"measurement": "CYPIR herbicidal rating", "setting": "[3]; rate 0.1250 kg/ha", "value": 0.0}, {"measurement": "ZEAMX herbicidal rating", "setting": "[4]; rate 0.0320 kg/ha", "value": 1.5}, {"measurement": "ZEAMX herbicidal rating", "setting": "[4]; rate 0.0620 kg/ha", "value": 2.5}, {"measurement": "ZEAMX herbicidal rating", "setting": "[4]; rate 0.1250 kg/ha", "value": 3.0}, {"measurement": "GALAP herbicidal rating", "setting": "[5]; rate 0.0320 kg/ha", "value": 3.0}, {"measurement": "GALAP herbicidal rating", "setting": "[5]; rate 0.0620 kg/ha", "value": 3.0}, {"measurement": "GALAP herbicidal rating", "setting": "[5]; rate 0.1250 kg/ha", "value": 3.0}, {"measurement": "ECHORC herbicidal rating", "setting": "[6]; rate 0.0320 kg/ha", "value": 0.0}, {"measurement": "ECHORC herbicidal rating", "setting": "[6]; rate 0.1250 kg/ha", "value": 0.0}, {"measurement": "Preemergence herbicidal rating AMBEL", "setting": "[7]; rate 0.0620 kg/ha", "value": 0.0}, {"measurement": "Preemergence herbicidal rating AMBEL", "setting": "[7]; rate 0.1250 kg/ha", "value": 0.0}, {"measurement": "Preemergence herbicidal rating AMBEL", "setting": "[7]; rate 0.2500 kg/ha", "value": 0.0}, {"measurement": "Preemergence herbicidal rating GALAP", "setting": "[8]; rate 0.0620 kg/ha", "value": 0.0}, {"measurement": "Preemergence herbicidal rating GALAP", "setting": "[8]; rate 0.1250 kg/ha", "value": 0.0}, {"measurement": "Preemergence herbicidal rating GALAP", "setting": "[8]; rate 0.2500 kg/ha", "value": 0.0}, {"measurement": "ECHCG herbicidal rating", "setting": "[9]; rate 0.0320 kg/ha", "value": 0.0}, {"measurement": "ECHCG herbicidal rating", "setting": "[9]; rate 0.0620 kg/ha", "value": 0.0}, {"measurement": "ECHCG herbicidal rating", "setting": "[9]; rate 0.1250 kg/ha", "value": 0.0}, {"measurement": "Preemergence herbicidal rating ZEAMX", "setting": "[10]; rate 0.0620 kg/ha", "value": 0.0}, {"measurement": "Preemergence herbicidal rating ZEAMX", "setting": "[10]; rate 0.1250 kg/ha", "value": 0.0}, {"measurement": "Preemergence herbicidal rating ZEAMX", "setting": "[10]; rate 0.2500 kg/ha", "value": 0.0}, {"measurement": "GLXMAW herbicidal rating", "setting": "[11]; rate 0.0320 kg/ha", "value": 6.0}, {"measurement": "GLXMAW herbicidal rating", "setting": "[11]; rate 0.0620 kg/ha", "value": 6.0}, {"measurement": "GLXMAW herbicidal rating", "setting": "[11]; rate 0.1250 kg/ha", "value": 6.0}, {"measurement": "ABUTH herbicidal rating", "setting": "[12]; rate 0.0320 kg/ha", "value": 5.0}, {"measurement": "ABUTH herbicidal rating", "setting": "[12]; rate 0.0620 kg/ha", "value": 7.0}, {"measurement": "ABUTH herbicidal rating", "setting": "[12]; rate 0.1250 kg/ha", "value": 9.0}, {"measurement": "ORYSAT herbicidal rating", "setting": "[13]; rate 0.0320 kg/ha", "value": 0.0}, {"measurement": "ORYSAT herbicidal rating", "setting": "[13]; rate 0.0620 kg/ha", "value": 0.5}, {"measurement": "ORYSAT herbicidal rating", "setting": "[13]; rate 0.1250 kg/ha", "value": 1.0}, {"measurement": "Preemergence herbicidal rating ABUTH", "setting": "[14]; rate 0.0620 kg/ha", "value": 0.0}, {"measurement": "Preemergence herbicidal rating ABUTH", "setting": "[14]; rate 0.1250 kg/ha", "value": 0.0}, {"measurement": "Preemergence herbicidal rating ABUTH", "setting": "[14]; rate 0.2500 kg/ha", "value": 0.0}, {"measurement": "SAGPY herbicidal rating", "setting": "[15]; rate 0.0320 kg/ha", "value": 0.0}, {"measurement": "SAGPY herbicidal rating", "setting": "[15]; rate 0.1250 kg/ha", "value": 0.0}, {"measurement": "Preemergence herbicidal rating GLXMA", "setting": "[16]; rate 0.0620 kg/ha", "value": 0.0}, {"measurement": "Preemergence herbicidal rating GLXMA", "setting": "[16]; rate 0.1250 kg/ha", "value": 0.0}, {"measurement": "Preemergence herbicidal rating GLXMA", "setting": "[16]; rate 0.2500 kg/ha", "value": 0.0}, {"measurement": "ORYSAT herbicidal rating (transplanted rice tolerance)", "setting": "[17]", "value": 0.0}, {"measurement": "CHEAL herbicidal rating", "setting": "[18]; rate 0.0320 kg/ha", "value": 9.0}, {"measurement": "CHEAL herbicidal rating", "setting": "[18]; rate 0.0620 kg/ha", "value": 9.0}, {"measurement": "CHEAL herbicidal rating", "setting": "[18]; rate 0.1250 kg/ha", "value": 9.0}, {"measurement": "AMBEL herbicidal rating", "setting": "[19]; rate 0.0320 kg/ha", "value": 4.0}, {"measurement": "AMBEL herbicidal rating", "setting": "[19]; rate 0.0620 kg/ha", "value": 4.0}, {"measurement": "AMBEL herbicidal rating", "setting": "[19]; rate 0.1250 kg/ha", "value": 5.0}, {"measurement": "CASOB herbicidal rating", "setting": "[20]; rate 0.0320 kg/ha", "value": 0.0}, {"measurement": "CASOB herbicidal rating", "setting": "[20]; rate 0.0620 kg/ha", "value": 3.0}, {"measurement": "CASOB herbicidal rating", "setting": "[20]; rate 0.1250 kg/ha", "value": 4.0}, {"measurement": "Preemergence herbicidal rating ECHCG", "setting": "[21]; rate 0.0620 kg/ha", "value": 0.0}, {"measurement": "Preemergence herbicidal rating ECHCG", "setting": "[21]; rate 0.1250 kg/ha", "value": 0.0}, {"measurement": "Preemergence herbicidal rating ECHCG", "setting": "[21]; rate 0.2500 kg/ha", "value": 0.0}, {"measurement": "IPOHE herbicidal rating", "setting": "[22]; rate 0.0320 kg/ha", "value": 7.0}, {"measurement": "IPOHE herbicidal rating", "setting": "[22]; rate 0.0620 kg/ha", "value": 7.0}, {"measurement": "IPOHE herbicidal rating", "setting": "[22]; rate 0.1250 kg/ha", "value": 8.0}, {"measurement": "TRZAWR herbicidal rating", "setting": "[23]; rate 0.0320 kg/ha", "value": 0.0}, {"measurement": "TRZAWR herbicidal rating", "setting": "[23]; rate 0.0620 kg/ha", "value": 0.0}, {"measurement": "TRZAWR herbicidal rating", "setting": "[23]; rate 0.1250 kg/ha", "value": 0.0}]}]}
